Measurements as given in ChEMBL document CHEMBL3885881, “DrugMatrix”.

Species: Rattus norvegicus
Assay: DrugMatrix - Regimen: Daily Repeat
Assay type: toxicity, organism-based, Sprague-Dawley
Design: regimen Daily Repeat, gender Male, age 6-8 weeks
Settings: in vivo, po, route oral GAVAGE, vehicle 100 % WATER; for ABSOLUTE BASOPHIL / ABSOLUTE EOSINOPHIL / ABSOLUTE LYMPHOCYTE / ABSOLUTE MONOCYTE / ABSOLUTE SEGMENTED NEUTROPHIL / BASOPHIL / EOSINOPHIL / ERYTHROCYTE COUNT / HEMATOCRIT / HEMOGLOBIN / LEUKOCYTE COUNT / LYMPHOCYTE / MEAN CORPUSCULAR HEMOGLOBIN / MEAN CORPUSCULAR HEMOGLOBIN CONCENTRATION / MEAN CORPUSCULAR VOLUME / MONOCYTE / NEUTROPHIL / NUCLEATED RED BLOOD CELLS / PLATELET COUNT: tissue Blood; for ALANINE AMINOTRANSFERASE / ALBUMIN / ALKALINE PHOSPHATASE / ASPARTATE AMINOTRANSFERASE / BLOOD UREA NITROGEN / CARBON DIOXIDE / CHLORIDE / CHOLESTEROL / CREATINE PHOSPHOKINASE / CREATININE / GLUCOSE / LACTATE DEHYDROGENASE / LIPASE / PHOSPHORUS / POTASSIUM / SODIUM / TOTAL BILIRUBIN / TOTAL PROTEIN / URIC ACID: tissue Plasma
[1] = 1 mg/kg, 120 h, dose level Low, time 5 day
[2] = 10 mg/kg, 72 h, dose level High, time 3 day
[3] = 10 mg/kg, 120 h, dose level High, time 5 day

Question: What does the source list for `CC[C@H](C)[C@H]1O[C@]2(C=C[C@@H]1C)C[C@@H]1C[C@@H](C/C=C(\C)[C@@H](O[C@H]3C[C@H](OC)[C@@H](O[C@H]4C[C@H](OC)[C@@H](O)[C@H](C)O4)[C@H](C)O3)[C@@H](C)/C=C/C=C3\CO[C@@H]4[C@H](O)C(C)=C[C@@H](C(=O)O1)[C@]34O)O2.CO[C@H]1C[C@H](O[C@H]2[C@H](C)O[C@@H](O[C@@H]3/C(C)=C/C[C@@H]4C[C@@H](C[C@]5(C=C[C@H](C)[C@@H](C(C)C)O5)O4)OC(=O)[C@@H]4C=C(C)[C@@H](O)[C@H]5OC/C(=C\C=C\[C@@H]3C)[C@]54O)C[C@@H]2OC)O[C@@H](C)[C@@H]1O` [ABAMECTIN]?
Answer: ABSOLUTE BASOPHIL [1]: 0 CELLS/uL; ABSOLUTE EOSINOPHIL [1]: 144.67 CELLS/uL; ABSOLUTE LYMPHOCYTE [1]: 15431.33 CELLS/uL; ABSOLUTE MONOCYTE [1]: 370 CELLS/uL; ABSOLUTE SEGMENTED NEUTROPHIL [1]: 1387.33 CELLS/uL; BASOPHIL [1]: 0%; EOSINOPHIL [1]: 0.67%; ERYTHROCYTE COUNT [1]: 5.65 x10E6/uL; HEMATOCRIT [1]: 33.97%; HEMOGLOBIN [1]: 13.77 G/DL; LEUKOCYTE COUNT [1]: 17.33 x10E3/uL; LYMPHOCYTE [1]: 89.67%; MEAN CORPUSCULAR HEMOGLOBIN [1]: 24.4 pg; MEAN CORPUSCULAR HEMOGLOBIN CONCENTRATION [1]: 40.53 G/DL; MEAN CORPUSCULAR VOLUME [1]: 60.13 fL; MONOCYTE [1]: 2%; NEUTROPHIL [1]: 7.67%; NUCLEATED RED BLOOD CELLS [1]: 0 /100WBC; PLATELET COUNT [1]: 1317.33 x10E3/uL; ALANINE AMINOTRANSFERASE [1]: 48.67 u/L; ALBUMIN [1]: 4.2 G/DL; ALKALINE PHOSPHATASE [1]: 323.67 u/L; ASPARTATE AMINOTRANSFERASE [1]: 72 u/L; BLOOD UREA NITROGEN [1]: 14.67 mg/dL; CARBON DIOXIDE [1]: 25 mmol/L; CHLORIDE [1]: 102 MEQ/L; CHOLESTEROL [1]: 70.33 mg/dL; CREATINE PHOSPHOKINASE [1]: 216.33 u/L; CREATININE [1]: 0.13 mg/dL; GLUCOSE [1]: 162.33 mg/dL; LACTATE DEHYDROGENASE [1]: 87.67 u/L; LIPASE [1]: 9 u/L; PHOSPHORUS [1]: 11.33 mg/dL; POTASSIUM [1]: 6.2 MEQ/L; SODIUM [1]: 144.03 MEQ/L; TOTAL BILIRUBIN [1]: 0.17 mg/dL; TOTAL PROTEIN [1]: 5.87 G/DL; URIC ACID [1]: 1.5 mg/dL; ABSOLUTE BASOPHIL [2]: 0 CELLS/uL; ABSOLUTE EOSINOPHIL [2]: 36.33 CELLS/uL; ABSOLUTE LYMPHOCYTE [2]: 12016 CELLS/uL; ABSOLUTE MONOCYTE [2]: 120 CELLS/uL; ABSOLUTE SEGMENTED NEUTROPHIL [2]: 861 CELLS/uL; BASOPHIL [2]: 0%; EOSINOPHIL [2]: 0.33%; ERYTHROCYTE COUNT [2]: 5.75 x10E6/uL; HEMATOCRIT [2]: 35.6%; HEMOGLOBIN [2]: 13.9 G/DL; LEUKOCYTE COUNT [2]: 13.03 x10E3/uL; LYMPHOCYTE [2]: 92.33%; MEAN CORPUSCULAR HEMOGLOBIN [2]: 24.2 pg; MEAN CORPUSCULAR HEMOGLOBIN CONCENTRATION [2]: 39.07 G/DL; MEAN CORPUSCULAR VOLUME [2]: 61.93 fL; MONOCYTE [2]: 1%; NEUTROPHIL [2]: 6.33%; NUCLEATED RED BLOOD CELLS [2]: 0 /100WBC; PLATELET COUNT [2]: 1234 x10E3/uL; ALANINE AMINOTRANSFERASE [2]: 46.33 u/L; ALBUMIN [2]: 4.23 G/DL; ALKALINE PHOSPHATASE [2]: 426 u/L; ASPARTATE AMINOTRANSFERASE [2]: 78.33 u/L; BLOOD UREA NITROGEN [2]: 14.67 mg/dL; CARBON DIOXIDE [2]: 25 mmol/L; CHLORIDE [2]: 99.67 MEQ/L; CHOLESTEROL [2]: 64 mg/dL; CREATINE PHOSPHOKINASE [2]: 208.33 u/L; CREATININE [2]: 0.18 mg/dL; GLUCOSE [2]: 136.33 mg/dL; LACTATE DEHYDROGENASE [2]: 150.33 u/L; LIPASE [2]: 11 u/L; PHOSPHORUS [2]: 11.37 mg/dL; POTASSIUM [2]: 6.65 MEQ/L; SODIUM [2]: 143.17 MEQ/L; TOTAL BILIRUBIN [2]: 0.17 mg/dL; TOTAL PROTEIN [2]: 5.87 G/DL; URIC ACID [2]: 1.33 mg/dL; ABSOLUTE BASOPHIL [3]: 0 CELLS/uL; ABSOLUTE EOSINOPHIL [3]: 0 CELLS/uL; ABSOLUTE LYMPHOCYTE [3]: 9787 CELLS/uL; ABSOLUTE MONOCYTE [3]: 273.67 CELLS/uL; ABSOLUTE SEGMENTED NEUTROPHIL [3]: 1239.33 CELLS/uL; BASOPHIL [3]: 0%; EOSINOPHIL [3]: 0%; ERYTHROCYTE COUNT [3]: 6.35 x10E6/uL; HEMATOCRIT [3]: 39.13%; HEMOGLOBIN [3]: 15.47 G/DL; LEUKOCYTE COUNT [3]: 11.3 x10E3/uL; LYMPHOCYTE [3]: 85.33%; MEAN CORPUSCULAR HEMOGLOBIN [3]: 24.43 pg; MEAN CORPUSCULAR HEMOGLOBIN CONCENTRATION [3]: 39.53 G/DL; MEAN CORPUSCULAR VOLUME [3]: 61.9 fL; MONOCYTE [3]: 2.67%; NEUTROPHIL [3]: 12%; NUCLEATED RED BLOOD CELLS [3]: 0.33 /100WBC; PLATELET COUNT [3]: 1492.67 x10E3/uL; ALANINE AMINOTRANSFERASE [3]: 38 u/L; ALBUMIN [3]: 4.63 G/DL; ALKALINE PHOSPHATASE [3]: 309 u/L; ASPARTATE AMINOTRANSFERASE [3]: 72.33 u/L; BLOOD UREA NITROGEN [3]: 17 mg/dL; CARBON DIOXIDE [3]: 27.33 mmol/L; CHLORIDE [3]: 98.67 MEQ/L; CHOLESTEROL [3]: 79.33 mg/dL; CREATINE PHOSPHOKINASE [3]: 356.67 u/L; CREATININE [3]: 0.14 mg/dL; GLUCOSE [3]: 153.33 mg/dL; LACTATE DEHYDROGENASE [3]: 446.33 u/L; LIPASE [3]: 8.67 u/L; PHOSPHORUS [3]: 10.47 mg/dL; POTASSIUM [3]: 6.1 MEQ/L; SODIUM [3]: 143.9 MEQ/L; TOTAL BILIRUBIN [3]: 0.13 mg/dL; TOTAL PROTEIN [3]: 6.7 G/DL; URIC ACID [3]: 1.5 mg/dL
